test: photocatalytic hydrogen evolution rate (per 5 mg catalyst); higher = more photocatalytic H2 evolution; extreme values may be limits of the assay; details: catalyst mass (mg): 5; Pt cocatalyst (wt%): 3; sacrificial medium: triethylamine/methanol/water 1:1:1
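Also: aromatic molecules in triethylamine/methanol/water with Pt photoreduced in situ, irradiated 3 h under a 1 sun AM 1.5G solar simulator (350–1000 nm), H2 quantified by headspace gas chromatography; listed molecule itself used as the photocatalyst at 5 mg per vial.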

`Brc1ccc2c3ccc(Br)cc3c3ccccc3c2c1` and `Brc1ccc2c(c1)sc1cc(Br)ccc12` are the same in “photocatalytic hydrogen evolution rate” value: 0 µmol/h for the first, 0 µmol/h for the second.

Going from `Brc1cccc2cc3cccc(Br)c3cc12` to `Brc1ccc2ccc3c(Br)ccc4ccc1c2c43`, the “photocatalytic hydrogen evolution rate” value rises from 0 µmol/h to 0.16 µmol/h.

`OB(O)c1cc(F)c(B(O)O)cc1F` and `Fc1cc(Br)c(Br)cc1F` are the same in “photocatalytic hydrogen evolution rate” value: 0 µmol/h for the first, 0 µmol/h for the second.

First: c1ccc(Nc2ccc(Nc3ccccc3)cc2)cc1
Second: O=C(C(=O)c1ccccc1)c1ccccc1
The “photocatalytic hydrogen evolution rate” value of the first is lower: 0 µmol/h for the first, 0.736 µmol/h for the second.

First: c1cc2ccc3cccc4ccc(c1)c2c34
Second: OCCCCc1ccc2ccc3cccc4ccc1c2c34
The “photocatalytic hydrogen evolution rate” value of the first is lower: 0.198 µmol/h for the first, 0.855 µmol/h for the second.

`N#CC(C#N)=C1CC(=C(C#N)C#N)c2ccccc21` and `N#CCc1ccccc1CC#N` are the same in “photocatalytic hydrogen evolution rate” value: 0 µmol/h for the first, 0 µmol/h for the second.

`N#Cc1ccc(Br)c(F)c1` and `N#Cc1ccc(-c2ccccc2)cc1` are the same in “photocatalytic hydrogen evolution rate” value: 0 µmol/h for the first, 0 µmol/h for the second.

Going from `O=Cc1ccc(-n2c3ccccc3c3ccccc32)cc1` to `O=c1c2ccccc2sc2ccccc12`, the “photocatalytic hydrogen evolution rate” value rises from 3.93 µmol/h to 14.6 µmol/h.

Compared with `O=c1cccc[nH]1`, `O=C(O)Cc1ccccc1` is higher in “photocatalytic hydrogen evolution rate” value: 0 µmol/h for the first, 0.0603 µmol/h for the second.

Compared with `CCOC(=O)c1nc(C(=O)OCC)nc(C(=O)OCC)n1`, `COC(=O)c1ccc(C(=O)OC)cc1` is higher in “photocatalytic hydrogen evolution rate” value: 0.00108 µmol/h for the first, 0.0838 µmol/h for the second.

First: c1cc2cccc3c4cccc5cccc(c(c1)c23)c54
Second: O=C1NC(=O)c2cccc3cccc1c23
The “photocatalytic hydrogen evolution rate” value of the first is lower: 1.25 µmol/h for the first, 24.5 µmol/h for the second.

`N#Cc1ccccc1CBr` and `N#Cc1cccnc1-c1ncccc1C#N` are the same in “photocatalytic hydrogen evolution rate” value: 0 µmol/h for the first, 0 µmol/h for the second.

Going from `c1ccc2c(c1)c1ccccc1n2-c1ccc(N(c2ccc(-n3c4ccccc4c4ccccc43)cc2)c2ccc(-n3c4ccccc4c4ccccc43)cc2)cc1` to `N#Cc1c(-n2c3ccccc3c3ccccc32)c(-n2c3ccccc3c3ccccc32)c(C#N)c(-n2c3ccccc3c3ccccc32)c1-n1c2ccccc2c2ccccc21`, the “photocatalytic hydrogen evolution rate” value rises from 0 µmol/h to 1.6 µmol/h.

`Nc1ccc(N)c2c1C(=O)c1c(N)ccc(N)c1C2=O` and `O=C1c2cccc(O)c2C(=O)c2cccc(O)c21` are the same in “photocatalytic hydrogen evolution rate” value: 0 µmol/h for the first, 0 µmol/h for the second.

Going from `Nc1ccc(-c2cc(-c3ccc(N)cc3)cc(-c3ccc(N)cc3)c2)cc1` to `O=C1C(c2ccccc2)=C(c2ccccc2)C(c2ccccc2)=C1c1ccccc1`, the “photocatalytic hydrogen evolution rate” value rises from 0 µmol/h to 0.0996 µmol/h.

First: O=C(O)c1ccc(-c2ccccc2)cc1
Second: O=c1c2ccccc2oc2ccccc12
The “photocatalytic hydrogen evolution rate” value of the first is lower: 0 µmol/h for the first, 7.48 µmol/h for the second.

`c1ccc2sccc2c1` and `COC(=O)c1ccc2cc(Br)ccc2c1` are the same in “photocatalytic hydrogen evolution rate” value: 0 µmol/h for the first, 0 µmol/h for the second.

First: Fc1cc(Br)c2nsnc2c1Br
Second: Nc1c(Br)cnc(Cl)c1Br
The “photocatalytic hydrogen evolution rate” value of the first is higher: 0.241 µmol/h for the first, 0 µmol/h for the second.

`Oc1c(F)c(F)c(O)c(F)c1F` and `Nc1cc(Br)c(Br)cc1N` are the same in “photocatalytic hydrogen evolution rate” value: 0 µmol/h for the first, 0 µmol/h for the second.

Compared with `Brc1cc(Br)cc(-c2cc(Br)cc(Br)c2)c1`, `O=Cc1cc(Br)cc(Br)c1` is higher in “photocatalytic hydrogen evolution rate” value: 0.0514 µmol/h for the first, 0.234 µmol/h for the second.

Compared with `CCCCCCC1(CCCCCC)c2cc(Br)ccc2-c2ccc(Br)cc21`, `CCN1C(=O)C(=O)c2cc(Br)cc(Br)c21` is higher in “photocatalytic hydrogen evolution rate” value: 0 µmol/h for the first, 0.105 µmol/h for the second.

`C#Cc1ccc(C#C)cc1` and `N#Cc1ccc(CCc2ccc(C#N)cc2)cc1` are the same in “photocatalytic hydrogen evolution rate” value: 0 µmol/h for the first, 0 µmol/h for the second.

First: c1cncc(-c2nc(-c3cccnc3)nc(-c3cccnc3)n2)c1
Second: c1ncncn1
The “photocatalytic hydrogen evolution rate” value of the first is higher: 0.168 µmol/h for the first, 0 µmol/h for the second.

Compared with `CC1(C)OB(c2cn[nH]c2)OC1(C)C`, `O=Cc1ccc(C=O)cc1` is higher in “photocatalytic hydrogen evolution rate” value: 0 µmol/h for the first, 0.0145 µmol/h for the second.

Reference: the supplement of paper PMC8372320
